# Experimental data reported in USRE48461E1, “Modulation of androgen receptor expression” (Ionis Pharmaceuticals, Inc., priority 2012, dated 2021).
# Tests used:
# Assay type in all cases: cell-based, human
# full-length AR = test: Western blot of full-length AR in MDV3100-resistant C4-2B cells; settings: C4-2B MR cells (Example 16)
# Procedure: (§1) ISIS 549372, ISIS 549434, and ISIS 554221 at 1 μM concentration of antisense oligonucleotide were each added to the culture media at 1 μM concentration for free uptake by the cells. After a treatment period of 2 days, cells were harvested in RIPA buffer containing protease inhibitors. The presence of bands for full-length AR, as well as the variant form, AR-V7, was detected by western blot using AR antibody (N-20, Santa Cruz).
# (§2) Western analysis of full-length AR, as well as the AR-V7 variant, was also conducted in a manner similar to the assay described above.
# AR-V7 = test: Western blot of AR-V7 in MDV3100-resistant C4-2B cells; settings: C4-2B MR cells (Example 16)
# Procedure: as §1, §2
# LMR20 cells = test: Proliferation of MDV3100-resistant LMR20 cells (MTT; with R1881 or DHT); settings: 5 days
# Procedure: LMR20 cells were plated at 1,500 cells per well in phenol red-free medium with charcoal-stripped fetal bovine serum (CSS), to remove any androgens from the medium (Life Technologies). […] The synthetic androgen agonist, R1881, (Takeda, A. N. et al., Mol. Pharmacol. 2007. 71: 473-82) was added on day 1 at 1 nM dose to a set of cells also treated with each of the antisense oligonucleotides. DHT was added on day 1 at a dose of 10 nM to another set of cells also treated with each of the antisense oligonucleotides. […] After a treatment period of 5 days, the proliferative ability of the cancer cells was measured by the standard MTT assay. Results are presented in Table 42 as percent inhibition of proliferation, relative to non-treated cells.
# AR mRNA [1] = test: AR mRNA levels in LMR20 cells (with/without DHT or R1881); settings: with or without DHT/R1881
# Procedure: LMR20 cells were plated at 1,500 cells per well in phenol red-free medium with CSS.
# C4-2B cells [2] = test: C4-2B cell proliferation, ASO in combination with MDV3100 (Example 19); settings: 6 days
# Procedure: C4-2B cells were plated at 1,500 cells per well. […] ISIS 347526 was included as a negative control. […] After a treatment period of 6 days, the proliferative capacity of the cancer cells was measured with CellTiter 96® AQueous One Solution Cell Proliferation kit (Promega), following the manufacturer's instructions. Results are presented in Table 46 as percent inhibition of proliferation, relative to non-treated cells. Treatment of the cells with ISIS 549372 or ISIS 549458 reduced proliferation of the cells more extensively than treatment with ISIS 554221.
# AR full-length mRNA = AR full-length mRNA in CWR22-RV1 cells (RNAiMax, RTS3559); settings: 6 days
# Procedure: (§3) CWR22-RV1 cells were plated and transfected using RNAiMax reagent (Life Technologies) with ISIS oligonucleotides at 1.7 nM, 5.0 nM, 16.7 nM, or 50 nM concentrations. ISIS 347526 was included as a negative control. After a treatment period of 6 days, the target reduction and proliferative capacity of the cancer cells was measured.
# (§4) Antisense inhibition of AR full-length mRNA was measured with the RTS3559 primer probe set. The results are presented in Table 63 as percent inhibition relative to non-treated cells. The reduction in V7 splice variant of the AR mRNA was also measured by RT-PCR using SYBR Green staining (Hu, R. et al., Cancer Res. 2009. 69: 16-22). The results are presented in Table 64, as percent reduction, relative to non-treated cells. Cell proliferation was measured with CellTiter 96® AQueous One Solution Cell Proliferation kit (Promega), following the manufacturer's instructions. Results are presented in Table 65 as percent inhibition of proliferation, relative to non-treated cells.
# [3] = tested on: V7 splice variant of the AR mRNA; test: AR V7 splice variant mRNA in CWR22-RV1 cells (RT-PCR SYBR Green); settings: RNAiMax, 6 days
# Procedure: as §3, §4
# CWR22-RV1 cells = test: CWR22-RV1 cell proliferation (CellTiter 96); settings: RNAiMax, 6 days
# Procedure: as §3, §4
# AR mRNA [4] = test: AR mRNA in C4-2B cells by free uptake (hAR_LTS00943); settings: free uptake, 24 hrs
# Procedure: (§5) Cells were plated at a concentration of 1,000 cells/well in 96-well plates to measure cell proliferation, and at 4,000 cells/well to measure target reduction. ISIS 549458, ISIS 549372, ISIS 549434, and ISIS 554221 were added individually at 0.04 μM, 0.20 μM, 1.00 μM, or 5.00 μM. After an incubation period of 24 hrs, mRNA levels were measured using hAR_LTS00943.
# C4-2B cells [5] = test: C4-2B cell proliferation by free uptake (MTT); settings: day 6
# Procedure: as §5
# On day 6, cells plated for measuring proliferation were incubated with MTT reagent until the development of color. Color intensity was measured using a spectrophotometer at 490 nm.
sequence,measurement,setting,value
"ACCAAGTTTCTTCAGC (LNA gapmer, phosphorothioate backbone, further chemistry not given here) [ISIS 554221, 3-10-3 LNA gapmer, phosphorothioate backbone, targeted to exon 4 of AR; benchmark, reference compound]",levels of full-length AR (Western analysis),full-length AR,reduced levels of full-length AR less extensively compared to ISIS 549372
same,levels of AR-V7 (Western analysis),AR-V7,did not reduce levels of AR-V7
same,Percent inhibition of LMR20 cell proliferation,"LMR20 cells; CSS + DHT, ASO 0.04 μM",0%
same,Percent inhibition of LMR20 cell proliferation,"LMR20 cells; CSS + DHT, ASO 0.20 μM",0%
same,Percent inhibition of LMR20 cell proliferation,"LMR20 cells; CSS + DHT, ASO 1.0 μM",10%
same,Percent inhibition of LMR20 cell proliferation,"LMR20 cells; CSS + DHT, ASO 5.0 μM",36%
same,Percent inhibition of LMR20 cell proliferation,"LMR20 cells; CSS + R1881, ASO 0.04 μM",1%
same,Percent inhibition of LMR20 cell proliferation,"LMR20 cells; CSS + R1881, ASO 0.20 μM",10%
same,Percent inhibition of LMR20 cell proliferation,"LMR20 cells; CSS + R1881, ASO 1.0 μM",19%
same,Percent inhibition of LMR20 cell proliferation,"LMR20 cells; CSS + R1881, ASO 5.0 μM",54%
same,Percent inhibition of LMR20 cell proliferation,"LMR20 cells; CSS, ASO 0.04 μM",0%
same,Percent inhibition of LMR20 cell proliferation,"LMR20 cells; CSS, ASO 0.20 μM",1%
same,Percent inhibition of LMR20 cell proliferation,"LMR20 cells; CSS, ASO 1.0 μM",2%
same,Percent inhibition of LMR20 cell proliferation,"LMR20 cells; CSS, ASO 5.0 μM",16%
same,AR mRNA levels in LMR20 cells,AR mRNA [1],did not alter AR mRNA levels
same,Percent inhibition of C4-2B cell proliferation with 0.1 μM ASO,C4-2B cells [2]; 0.1 μM ASO + MDV3100 1 μM,59%
same,Percent inhibition of C4-2B cell proliferation with 0.1 μM ASO,C4-2B cells [2]; 0.1 μM ASO + MDV3100 […],29%
same,Percent inhibition of C4-2B cell proliferation with 0.1 μM ASO,"C4-2B cells [2]; 0.1 μM ASO, MDV3100 0 μM",9%
same,Percent inhibition of C4-2B cell proliferation with 0.2 μM ASO,C4-2B cells [2]; 0.2 μM ASO + MDV3100 1 μM,67%
same,Percent inhibition of C4-2B cell proliferation with 0.2 μM ASO,C4-2B cells [2]; 0.2 μM ASO + MDV3100 […],45%
same,Percent inhibition of C4-2B cell proliferation with 0.2 μM ASO,"C4-2B cells [2]; 0.2 μM ASO, MDV3100 0 μM",23%
same,"reduced cell proliferation, ASO alone","C4-2B cells [2]; C4-2B cells, ASO alone, Table 46 (0.1 μM ASO)",23%
same,Percent inhibition of AR full-length mRNA,AR full-length mRNA; dose 5.0 nM,41%
same,Percent inhibition of AR full-length mRNA,AR full-length mRNA; dose 16.7 nM,67%
same,Percent inhibition of AR full-length mRNA,AR full-length mRNA; dose 50.0 nM,72%
same,"Percent inhibition of AR splice variant, V7",[3]; dose 5.0 nM,1%
same,"Percent inhibition of AR splice variant, V7",[3]; dose 16.7 nM,7%
same,"Percent inhibition of AR splice variant, V7",[3]; dose 50.0 nM,35%
same,Percent inhibition of cell proliferation,CWR22-RV1 cells; dose 5.0 nM,11%
same,Percent inhibition of cell proliferation,CWR22-RV1 cells; dose 16.7 nM,27%
same,Percent inhibition of cell proliferation,CWR22-RV1 cells; dose 50.0 nM,47%
same,Percent inhibition of AR full-length mRNA,AR mRNA [4]; dose 0.04 μM,0%
same,Percent inhibition of AR full-length mRNA,AR mRNA [4]; dose 0.20 μM,0%
same,Percent inhibition of AR full-length mRNA,AR mRNA [4]; dose 1.00 μM,0%
same,Percent inhibition of AR full-length mRNA,AR mRNA [4]; dose 5.00 μM,0%
same,Percent inhibition of cell proliferation,C4-2B cells [5]; dose 0.04 μM,0%
same,Percent inhibition of cell proliferation,C4-2B cells [5]; dose 0.20 μM,10%
same,Percent inhibition of cell proliferation,C4-2B cells [5]; dose 1.00 μM,21%
same,Percent inhibition of cell proliferation,C4-2B cells [5]; dose 5.00 μM,30%
